{"source": "patent US11179450B2", "about": "“Long chain antigen containing interepitope sequence that promotes antigen presentation to T cells” (MIE UNIVERSITY, priority 2013, dated 2021)", "system": "MA p265 specific CD8+ T cells", "experiment": "Specific CD8+ T cell induction in mice, intracellular cytokine staining (MA p265 epitope)", "type": "in vivo, BALB/c mice", "details": "FIG. 6; comparing one to six tyrosines", "protocol": "Long chain peptide antigens MEN, all containing three types of mouse CD8+ T cell epitope sequences (MA p265 (Sequence No. 27), NY p81 (Sequence No. 29), and mERK2 9m (Sequence No. 28)), were synthesized. The interepitope sequences between the respective epitopes were one to six consecutive tyrosines (Sequence Nos. 1 and 9-12). Vaccines containing the respective long chain peptide antigens were administered to mice in the same manner as in FIG. 1 and the frequencies of CD8+ T cells specific to the respective epitope sequences were measured by the intracellular cytokine staining method.\nLong chain peptide antigens MEN, all containing three types of mouse CD8+ T cell epitope sequences (MA p265 (Sequence No. 27), NY p81 (Sequence No. 29), and mERK2 9m (Sequence No. 28)), were synthesized. The interepitope sequences between the respective epitopes were five to ten consecutive tyrosines (Sequence Nos. 1 and 13-15). Vaccines containing the respective long chain peptide antigens were administered to mice in the same manner as in FIG. 1 and the frequencies of CD8+ T cells specific to the respective epitope sequences were measured by the intracellular cytokine staining method.\nEach CHP/long chain peptide complex as the vaccine and the CpG oligo DNA as the adjuvant were administered at the same time to a mouse. Administration was performed by subcutaneous injection on the back of the mouse. […]"}
{"sequence": "SNPARYEFLYYYYYYQYIHSANVLYYYYYYRGPESRLL (Long chain peptide antigen, containing three types of mouse CD8+ T cell epitope sequences (MA p265, NY p81, and mERK2 9m)) [MEN(Y6)]", "values": [{"measurement": "induction of specific CD8+ T cells, MA p265 (first epitope)", "value": "highest"}]}
